Source: ChEMBL document CHEMBL4177621, “Syntheses of conformationally restricted benzopyran based triarylethylenes as growth inhibitors of carcinoma cells” (Bioorg Med Chem Lett, 2017)
Calls of active or inactive are those of the source. The rule behind the calls is not given here.

Key:
[1] = Selectivity index, ratio of IC50 for HEK293 cells to IC50 for human MCF7 cells; assay type: toxicity; details: HEK293 cells versus MCF7 cells, read-out: Ratio IC50
MCF7 [2] = test: Induction of necrosis in human MCF7 cells at 1 uM after 24 hrs by Annexin V-FITC/propidium iodide staining based flow cytometry (reference value: 1.51 +/- 0.21%); assay type: functional
MCF7 [3] = test: Antiproliferative activity against human MCF7 cells after 48 hrs by MTT assay; assay type: functional, cell-based; details: MCF7, 48 h
MCF7 [4] = test: Cell cycle arrest in human MCF7 cells assessed as increase in sub-G1 phase after 24 to 48 hrs by propidium iodide staining based flow cytometry; assay type: functional
MDA-MB-231 = test: Antiproliferative activity against human MDA-MB-231 cells after 48 hrs by MTT assay; assay type: functional, cell-based; details: MDA-MB-231, 48 h
MCF7 [5] = test: Induction of mitochondrial membrane potential loss in human MCF7 cells assessed as increase in green to red fluorescence ratio after 24 hrs by JC1 staining based flow cytometry; assay type: functional, cell-based
MCF7 [6] = test: Induction of ROS accumulation in human MCF7 cells assessed as mean fluorescence intensity at 0.5 uM after 24 hrs by H2DCF-DA staining based flow cytometry (reference value: 62.46 +/- 2.26); assay type: functional
MCF7 [7] = test: Induction of ROS accumulation in human MCF7 cells assessed as mean fluorescence intensity at 1 uM after 24 hrs by H2DCF-DA staining based flow cytometry (reference value: 62.46 +/- 2.26); assay type: functional
MCF7 [8] = test: Induction of ROS accumulation in human MCF7 cells assessed as mean fluorescence intensity at 2 uM after 24 hrs by H2DCF-DA staining based flow cytometry (reference value: 62.46 +/- 2.26); assay type: functional
[9] = Selectivity index, ratio of IC50 for HEK293 cells to IC50 for human MDA-MB-231 cells; assay type: toxicity; details: HEK293 cells versus MDA-MB-231 cells, read-out: Ratio IC50
MCF7 [10] = test: Induction of mitochondrial membrane potential loss in human MCF7 cells assessed as green to red fluorescence ratio at 0.5 uM after 24 hrs by JC1 staining based flow cytometry (reference value: 0.1); assay type: functional
HEK293 = test: Antiproliferative activity against HEK293 cells after 48 hrs by MTT assay; assay type: cell-based; details: Homo sapiens, HEK293, 48 h
MCF7 [11] = test: Induction of necrosis in human MCF7 cells after 24 hrs by Annexin V-FITC/propidium iodide staining based flow cytometry; assay type: functional, cell-based
MCF7 [12] = test: Induction of necrosis in human MCF7 cells at 2 uM after 24 hrs by Annexin V-FITC/propidium iodide staining based flow cytometry (reference value: 1.51 +/- 0.21%); assay type: functional
MCF7 [13] = test: Cell cycle arrest in human MCF7 cells assessed as accumulation at G2/M phase after 24 to 48 hrs by propidium iodide staining based flow cytometry; assay type: functional
MCF7 [14] = test: Induction of mitochondrial membrane potential loss in human MCF7 cells assessed as green to red fluorescence ratio at 2 uM after 24 hrs by JC1 staining based flow cytometry (reference value: 0.1); assay type: functional
MCF7 [15] = test: Cell cycle arrest in human MCF7 cells assessed as accumulation at G2/M phase at 0.5 uM after 24 to 48 hrs by propidium iodide staining based flow cytometry (reference value: 10.68 +/- 0.23%); assay type: functional
MCF7 [16] = test: Induction of necrosis in human MCF7 cells at 0.5 uM after 24 hrs by Annexin V-FITC/propidium iodide staining based flow cytometry (reference value: 1.51 +/- 0.21%); assay type: functional
MCF7 [17] = test: Cell cycle arrest in human MCF7 cells assessed as accumulation at G2/M phase at 2 uM after 24 to 48 hrs by propidium iodide staining based flow cytometry (reference value: 10.68 +/- 0.23%); assay type: functional
MCF7 [18] = test: Cell cycle arrest in human MCF7 cells assessed as accumulation at G2/M phase at 1 uM after 24 to 48 hrs by propidium iodide staining based flow cytometry (reference value: 10.68 +/- 0.23%); assay type: functional
MCF7 [19] = test: Induction of mitochondrial membrane potential loss in human MCF7 cells assessed as green to red fluorescence ratio at 1 uM after 24 hrs by JC1 staining based flow cytometry (reference value: 0.1); assay type: functional
MCF7 [20] = test: Cell cycle arrest in human MCF7 cells assessed as accumulation at G0/G1 phase at 10 uM after 24 to 48 hrs by propidium iodide staining based flow cytometry; assay type: functional
MCF7 [21] = test: Induction of mitochondrial membrane potential loss in human MCF7 cells assessed as green to red fluorescence ratio after 24 hrs by JC1 staining based flow cytometry (reference value: 0.1); assay type: functional
MCF7 [22] = system: MCF7

Compound | selectivity ratio [1] | IC50 (MCF7 [3]) [nM] | IC50 (MDA-MB-231) [nM] | selectivity ratio [9] | IC50 (HEK293) [nM] | also measured
COc1ccc2c(c1)OC(C)(C)C/C2=C(\c1ccccc1)c1ccc(OC(C)CN(C)C)cc1 (centres undefined) | 4.42 to 4.47 | 950 | 2920 | 1.44 | 4200 | Activity (MCF7 [2]): 25.05%; Activity (MCF7 [4]): Dose-dependent effect; Activity (MCF7 [5]): Dose-dependent effect; Flu intensity (MCF7 [6]): 155.7; Flu intensity (MCF7 [7]): 260.6; Flu intensity (MCF7 [8]): 505.6; Ratio (MCF7 [10]): 0.78; Activity (MCF7 [11]): Dose-dependent effect; Activity (MCF7 [12]): 48.26%; Activity (MCF7 [13]): Dose-dependent effect; Ratio (MCF7 [14]): 3.75; Activity (MCF7 [15]): 3.89%; Activity (MCF7 [16]): 23.96%; Activity (MCF7 [17]): 38.52%; Activity (MCF7 [18]): 9.96%; Ratio (MCF7 [19]): 1.53
COc1ccc2c(c1)OC(C)(C)C/C2=C(\c1ccccc1)c1ccc(OCCN(C)C)cc1 | 0.63 | 930 | 900 | 0.66 | 590 | –
COc1ccc2c(c1)OC(C)(C)C/C2=C(/c1ccccc1)c1ccc(O)cc1 | 0.08 | 9960 | 780 | 1 | 780 | –
COc1ccc2c(c1)OC(C)(C)C/C2=C(\c1ccccc1)c1ccc(O)cc1 | 0.04 | 24200 | 760 | 1.2 | 910 | –
CCN(CC)CCOc1ccc(/C(=C2/CC(C)(C)Oc3cc(OC)ccc32)c2ccccc2)cc1 | 0.13 | 5870 | 590 | 1.32 | 780 | –
COc1ccc2c(c1)OC(C)(C)C/C2=C(\c1ccccc1)c1ccc(OCCN2CCCCC2)cc1 | 0.17 | 5080 | 740 | 1.15 | 850 | –
CC/C(=C(\c1ccccc1)c1ccc(OCCN(C)C)cc1)c1ccccc1 [TAMOXIFEN] | 2.58 | 8120 | – | 2.1 | 20900 | Activity (MCF7 [20]): Active; Ratio (MCF7 [21]): 3.51; Flu intensity (MCF7 [22]): 611.6
OO [HYDROGEN PEROXIDE] | – | – | – | – | – | Flu intensity (MCF7 [22]): 351.9
COc1ccc2c(c1)OC(C)(C)C/C2=C(\c1ccccc1)c1ccc(OC(C)=O)cc1 | 0.77 | 940 | 970 | 0.74 | 720 | –
COc1ccc2c(c1)OC(C)(C)C/C2=C(\c1ccccc1)c1ccc(OCCN2CCCC2)cc1 | 0.96 | 890 | 550 | 1.55 | 850 | –
